The conditions of this data set: Crystal; Heating/Cooling curves.

Numbers after ± are expanded uncertainties.

For `C1CCCCC1` [cyclohexane], the Normal melting temperature amounted to 6.80 ± 0.2 °C.
As to `O.O=P(O)(O)O.O=P(O)(O)O` [phosphoric acid hemihydrate], the Normal melting temperature was 29.2 ± 0.21 °C.

For the origin of these results see the NIST ThermoML archive (doi:10.1021/acs.jced.8b00666).
